For twelve molecules, Emax results are on record in publication PMC7698210 (International Journal of Molecular Sciences, 2020).

Holding throughout (experiment): cell-based
For assay [1], the target named is T1, H2R (Homo sapiens, UniProt P25021).
T1 construct: gene HRH2; full receptor, C-terminal NlucC tag (11 aa split-NanoLuc fragment); co-expressed with NlucN-mGs (mini-Gs393) in HEK293T
Also noted: species or system HEK293T. The conditions noted are these: HEK-293T; read-out: Mini G Protein Recruitment / Emax [%].

Assay [2] deals with T2, H1R (Homo sapiens, UniProt P35367). On the set-up: gene HRH1; full receptor, C-terminal NlucC tag (11 aa split-NanoLuc fragment); co-expressed with NlucN-mGsq (mini-Gs/q71) in HEK293T; species or system HEK293T. Particulars: HEK-293T, read-out: Mini G Protein Recruitment / Emax [%].
Assay [3] has as its target T1, H2R. Also noted: species or system HEK293T. Particulars: HEK-293T; read-out: Mini G Protein Recruitment / Emax [%]. The source holds these as a separate data set.
The target of assay [4] is T2, H1R. Also noted: gene HRH1. The conditions noted are these: HEK-293T, read-out: Mini G Protein Recruitment / Emax [%].

Where two headings read alike, the source gives them in different places.

T2 sequence (P35367 whole entry, the tested form may be a part): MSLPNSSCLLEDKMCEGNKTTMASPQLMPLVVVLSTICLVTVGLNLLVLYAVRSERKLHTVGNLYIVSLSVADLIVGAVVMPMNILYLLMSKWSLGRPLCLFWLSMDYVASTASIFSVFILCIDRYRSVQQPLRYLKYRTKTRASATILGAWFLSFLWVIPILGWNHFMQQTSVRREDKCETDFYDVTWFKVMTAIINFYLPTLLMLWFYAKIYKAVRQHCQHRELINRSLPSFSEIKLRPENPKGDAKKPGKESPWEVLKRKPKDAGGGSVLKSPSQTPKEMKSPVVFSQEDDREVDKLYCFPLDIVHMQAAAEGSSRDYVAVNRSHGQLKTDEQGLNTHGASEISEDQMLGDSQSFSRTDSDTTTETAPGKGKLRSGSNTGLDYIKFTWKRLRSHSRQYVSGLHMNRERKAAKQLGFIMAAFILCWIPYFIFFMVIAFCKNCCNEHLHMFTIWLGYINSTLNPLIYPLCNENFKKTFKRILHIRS
T1 sequence (P25021 whole entry, the tested form may be a part): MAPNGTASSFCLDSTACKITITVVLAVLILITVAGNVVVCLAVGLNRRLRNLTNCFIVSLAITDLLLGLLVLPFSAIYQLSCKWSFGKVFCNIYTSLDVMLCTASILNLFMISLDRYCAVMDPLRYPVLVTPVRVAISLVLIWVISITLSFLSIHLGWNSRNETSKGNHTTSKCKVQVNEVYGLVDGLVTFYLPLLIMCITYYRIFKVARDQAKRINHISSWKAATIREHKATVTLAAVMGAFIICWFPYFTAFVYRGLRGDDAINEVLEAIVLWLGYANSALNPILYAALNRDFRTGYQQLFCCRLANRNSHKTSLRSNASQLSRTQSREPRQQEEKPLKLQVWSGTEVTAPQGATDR

`CNCCc1cnc[nH]1` [Namh, N^α-methylhistamine]: the Emax in assay [1] was found to be 93 ± 1.7%; in assay [2], 99 ± 2%. Take `CN=C(NC#N)NCCSCc1nc[nH]c1C` [cim, cimetidine]: the Emax in assay [3] is -8 ± 0.8%. For `NCCc1c[nH]cn1` [his, histamine], the Emax in assay [3] and in assay [4] was 100% throughout. Consider `NCCc1c[nH]c(CCC(c2ccccc2)c2ccccc2)n1` [histapro, histaprodifen], for which the Emax in assay [2] worked out at 33 ± 2%. Consider `CCC(=O)NC(N)=NCCCc1cnc[nH]1` [PI294, UR-PI294], for which the results for the Emax in assay [1] and in assay [2] were 95 ± 1.1% and 29 ± 1.4%, respectively. For the molecule `Cc1[nH]cnc1CCN` [4mhis, 4-methylhistamine], the Emax in assay [1] was 93 ± 2.2%; in assay [2] it was 44 ± 2.4%. As for `CNC(=C[N+](=O)[O-])NCCSCc1ccc(CN(C)C)o1` [ran, ranitidine], the Emax in assay [3] is -8 ± 0.7%. With `Cc1[nH]cnc1CSCCNC(=N)NCCCc1c[nH]cn1` [impro, impromidine], the Emax in assay [1] came out at 90 ± 1.5%.

For the molecule `CN(C)CCCSC(=N)N` [dim, dimaprit], in assay [1], the Emax came out at 94 ± 2.6%. For the molecule `Cc1nc(N)sc1CCN` [amt, amthamine], the Emax in assay [1] came to 105 ± 2.8%. Regarding `NC(N)=Nc1nc(CSCCC(N)=NS(N)(=O)=O)cs1` [fam, famotidine], the Emax in assay [3] was -9 ± 0.7%. For `c1ccc(C(CCc2nc(CCNCCc3c[nH]cn3)c[nH]2)c2ccccc2)cc1` [suprahis, suprahistaprodifen], the Emax in assay [2] is 49 ± 3.7%.
